Measurements as given in US8039668B2, “Naphthalene-based inhibitors of anti-apoptotic proteins” (Burnham Institute for Medical Research, priority 2008, dated 2011).
Where two headings read alike, the source gives them in different places.

Experiments:
[1] = test system: human lymphoma RS11846 cell line; experiment: Apoptosis, Annexin V-FITC and propidium iodide assay; format: cell-based; details: Homo sapiens
Procedure: The apoptotic activity of the compounds against RS11846 cells was assessed by staining with Annexin V- and propidium iodide (PI). Lymphoma cell line, RS11846, was cultured in RPMI 1640 medium (Mediatech Inc., Herndon, Va. 20171) containing 10% fetal bovine serum (Mediatech Inc., Herndon, Va. 20171) and Penicillin/Streptomycin (Mediatech Inc., Herndon, Va. 20171). […] The percentage of viable cells was determined by FITC-Annexin V- and propidium iodide (PI)-labeling, using an Apoptosis Detection kit (BioVision Inc.), and analyzing stained cells by flow cytometry (FACSort; Bectin-Dickinson, Inc.; Mountain View, Calif.). Cells that were annexin-V-negative and PI-negative were considered viable.

BCL-XL [2] = target: T1, BCL-XL (Homo sapiens, UniProt Q07817); experiment: 1D 1H-NMR binding assay; details: Table 9; note: key: +++: Very Active; ++: Active; +: Mild; −: Weak
Procedure: By observing the aliphatic region of the spectra, binding could be readily detected due to chemical shift changes in active site methyl groups of Ile, Leu, Thr, Val or Ala (region between −0.8 and 0.3 ppm). All experiments were performed with a 600 MHz spectrometer Bruker Avance 600 equipped with four rf channels and z-axis pulse-field gradients.
Target sequence in this assay (Q07817 whole entry): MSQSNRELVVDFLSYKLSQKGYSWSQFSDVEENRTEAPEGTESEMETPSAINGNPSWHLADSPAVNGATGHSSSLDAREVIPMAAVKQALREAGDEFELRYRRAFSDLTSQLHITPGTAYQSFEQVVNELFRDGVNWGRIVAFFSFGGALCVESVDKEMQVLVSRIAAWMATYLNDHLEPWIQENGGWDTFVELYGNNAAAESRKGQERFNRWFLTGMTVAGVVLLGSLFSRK

[3] = test system: H460 human lung cell line; experiment: Cell viability, ATP-LITE assay; format: cell-based; details: Homo sapiens
Procedure: (§1) The activity of the compounds against human cancer cell lines (PC3ML, H460, H1299, RS11846) were assessed by using the ATP-LITE assay (PerkinElmer). All cells were seeded in either F12 or RPMI1640 medium with 5 mM L-glutamine supplemented with 5% fetal bovine serum (Mediatech Inc.), penicillin and streptomycin (Omega). For maintenance, cells were cultured in 5% FBS. Cells plated into 96 well plates at varying initial densities depending on doubling time. H460 and H1299 plated at 2000 cells/well, A549 and PC3 at 3000 cells/well, and RS118456S at 10,000 cells/well. Compounds were diluted to final concentrations with 0.1% DMSO. Prior to dispensing compounds onto cells, fresh 5% media was placed into wells. Administration of compounds occurred 24 hours after seeding into the fresh media. Cell viability was evaluated using ATP-LITE reagent (PerkinElmer) after 72 hours of treatment. Data were normalized to the DMSO control-treated cells using Prism version 5.01 (Graphpad Software).

RS11846 cell line = experiment: Cell viability, ATP-LITE assay; format: cell-based; details: Homo sapiens, read-out: RS11846 EC50 (ATP-LITE assay)
Procedure: as §1

PC3ML cells = experiment: Cell viability, ATP-LITE assay; format: cell-based, human; details: Homo sapiens, PC3-ML
Procedure: as §1

H1299 cell line = experiment: Cell viability, ATP-LITE assay; format: cell-based, human; details: Homo sapiens
Procedure: as §1

BCL-XL [4] = target: T1, BCL-XL; experiment: Competitive fluorescence polarization assay (FPA), Bak BH3 peptide; format: binding; design: 100 nM GST-BCL-XL ΔTM protein; details: Table 9; read-out: FPA IC50 (BCL-XL)
Procedure: For competitive binding assays, 100 nM GST-BCL-XL ΔTM protein was preincubated with the tested compound at varying concentrations in 47.5 μL PBS (pH=7.4) in 96-well black plates at room temperature for 10 min, then 2.5 μL of 100 nM FITC-labeled Bak BH3 peptide was added to produce a final volume of 50 μL. The wild-type and mutant Bak BH3 peptides were included in each assay plate as positive and negative controls, respectively. […] IC50 was determined by fitting the experimental data to a sigmoidal dose-response nonlinear regression model (SigmaPlot 10.0.1, Systat Software, Inc., San Jose, Calif., USA). Data reported are mean of three independent experiments±standard error (SE). […] Fluorescence polarization was measured after 10 min.
Target sequence in this assay (Q07817 1-209 limits assumed): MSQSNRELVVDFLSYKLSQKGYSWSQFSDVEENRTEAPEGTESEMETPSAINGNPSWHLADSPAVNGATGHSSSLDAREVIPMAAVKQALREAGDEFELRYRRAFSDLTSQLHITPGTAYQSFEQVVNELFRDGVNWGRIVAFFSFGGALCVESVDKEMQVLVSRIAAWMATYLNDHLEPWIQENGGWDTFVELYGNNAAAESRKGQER

[5] = Table 9, read-out: RS11846 EC50 (Annexin V- and propidium iodide assay)
[6] = NCI-H460, Table 9, read-out: H460 EC50
[7] = NCI-H1299, Table 9, read-out: H1299 EC50
[8] = read-out: RS11846 EC50 (Annexin V- and propidium iodide assay), Table 9
[9] = NCI-H1299, read-out: H1299 EC50

Structure (SMILES) | EC50 [1, 5] [µM] | 1D ^1H-NMR Binding Assay (BCL-XL) (BCL-XL [2]) | EC50 [3, 6] [µM] | EC50 (RS11846 cell line; Table 9) [µM] | EC50 (PC3ML cells; Table 9, read-out: PC3ML EC50) [µM] | EC50 (H1299 cell line; [7]) [µM] | EC50 [1, 8] [µM] | EC50 ([3]; NCI-H460, read-out: H460 EC50) [µM] | EC50 (RS11846 cell line) [µM] | EC50 (PC3ML cells; read-out: PC3ML EC50, Table 9) [µM] | EC50 (H1299 cell line; [9]) [µM] | IC50 (BCL-XL [4]) [µM]
Cc1cc2cc(O)c(O)cc2c(O)c1-c1c(C)cc2cc(O)c(O)cc2c1O [Compound II, 3,3′-dimethyl-2,2′-binaphthyl-1,1′,6,6′ 7,7′-hexaol] | 24.7 | + | 10.1 | 10 | 12.6 | 13.4 |  |  |  |  |  | 
Cc1cc2c(C(=O)C(C)C)c(O)c(O)cc2c(O)c1-c1c(C)cc2c(C(=O)C(C)C)c(O)c(O)cc2c1O [Compound III, 1,1′-(1,1′,6,6′,7,7′-hexahydroxy-3,3′-dimethyl-2,2′-binaphthyl-5,5′-diyl)bis(2-methylpropan-1-one)] |  | ++ |  |  |  |  | 14.7 | 1.5 | 15 | 3.9 | 4.8 | 
Cc1cc2c(C(=O)CC(C)C)c(O)c(O)cc2c(O)c1-c1c(C)cc2c(C(=O)CC(C)C)c(O)c(O)cc2c1O [Compound IV, 1,1′-(1,1′,6,6′,7,7′-hexahydroxy-3,3′-dimethyl-2,2′-binaphthyl-5,5′-diyl)bis(3-methylbutan-1-one)] | 13.7 | + | 1.1 | 10 | 7.5 | 3.6 |  |  |  |  |  | 1.3
Cc1cc2c(C(=O)c3ccc(-c4ccccc4)cc3)c(O)c(O)cc2c(O)c1-c1c(C)cc2c(C(=O)c3ccc(-c4ccccc4)cc3)c(O)c(O)cc2c1O [Compound IX, (1,1′,6,6′,7,7′-hexahydroxy-3,3′-dimethyl-2,2′-binaphthyl-5,5′-diyl)bis(biphenyl-4-ylmethanone)] |  | + |  |  |  |  | 25.9 | 8.2 | 2.8 | 7.7 | 9.6 | 
CCCCC(CC)CC(=O)c1c(O)c(O)cc2c(O)c(-c3c(C)cc4c(C(=O)CC(CC)CCCC)c(O)c(O)cc4c3O)c(C)cc12 (centres unmarked) [Compound V, 1,1′-(1,1′,6,6′,7,7′-hexahydroxy-3,3′-dimethyl-2,2′-binaphthyl-5,5′-diyl)bis(3-ethylheptan-1-one)] | 6.6 | + | 1.5 | 2.8 | 3 | 3 |  |  |  |  |  | 1.29
Cc1cc2c(C(=O)c3ccccc3)c(O)c(O)cc2c(O)c1-c1c(C)cc2c(C(=O)c3ccccc3)c(O)c(O)cc2c1O [Compound VII, (1,1′,6,6′,7,7′-hexahydroxy-3,3′-dimethyl-2,2′-binaphthyl-5,5′-diyl)bis(phenylmethanone)] | 18.3 | + |  |  | 3.6 | 4.2 |  |  |  |  |  | 2.9
Cc1cc2c(C(=O)c3ccc(C(C)(C)C)cc3)c(O)c(O)cc2c(O)c1-c1c(C)cc2c(C(=O)c3ccc(C(C)(C)C)cc3)c(O)c(O)cc2c1O [Compound X, (1,1′,6,6′,7,7′-hexahydroxy-3,3′-dimethyl-2,2′-binaphthyl-5,5′-diyl)bis((4-tert-butylphenyl)methanone)] | 13.4 | − | 3.6 | 2.3 | 2.8 | 4.8 |  |  |  |  |  | 
Cc1cc2c(C(=O)c3ccc(C(F)(F)F)cc3)c(O)c(O)cc2c(O)c1-c1c(C)cc2c(C(=O)c3ccc(C(F)(F)F)cc3)c(O)c(O)cc2c1O [Compound XI, (1,1′,6,6′,7,7′-hexahydroxy-3,3′-dimethyl-2,2′-binaphthyl-5,5′-diyl)bis((4-(trifluoromethyl)phenyl)methanone)] | 3 to 5.5 | + | 2.2 | 2.5 | 2.9 | 2 |  |  |  |  |  | 0.25
Cc1cc2c(C(=O)CC3CCCCC3)c(O)c(O)cc2c(O)c1-c1c(C)cc2c(C(=O)CC3CCCCC3)c(O)c(O)cc2c1O [Compound XV, 1,1′-(1,1′,6,6′,7,7′-hexahydroxy-3,3′-dimethyl-2,2′-binaphthyl-5,5′-diyl)bis(2-cyclohexylethanone)] | 5.2 | + | 1.8 | 2 | 1.9 | 2.1 |  |  |  |  |  | 
